Reference: patent US20250179045A1, “LPAR1 ANTAGONISTS AND USES THEREOF” (Contineum Therapeutics, Inc., priority 2021, published 2025)
pIC50: −log10 of the molar value.

Biological target: human LPA1 (Homo sapiens, UniProt Q92633)
Assay: In vitro functional assay of lysophosphatidic acid receptor 1 activity (calcium flux)
Format: cell-based
Conditions: B103 cells stably expressing human LPA1; Fluo-4 NW calcium flux after lysophosphatidic acid (18:1) at EC80; compounds 100 pM to 10 μM; read-out: LPA1 IC50
In short: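 B103 cells stably expressing human LPA1 plated onto compound for 24 h at 37 °C, loaded with Fluo-4 NW dye, re-exposed to compound (30 min 37 °C plus 30 min room temp).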

Chain of human LPA1 (Q92633 whole entry): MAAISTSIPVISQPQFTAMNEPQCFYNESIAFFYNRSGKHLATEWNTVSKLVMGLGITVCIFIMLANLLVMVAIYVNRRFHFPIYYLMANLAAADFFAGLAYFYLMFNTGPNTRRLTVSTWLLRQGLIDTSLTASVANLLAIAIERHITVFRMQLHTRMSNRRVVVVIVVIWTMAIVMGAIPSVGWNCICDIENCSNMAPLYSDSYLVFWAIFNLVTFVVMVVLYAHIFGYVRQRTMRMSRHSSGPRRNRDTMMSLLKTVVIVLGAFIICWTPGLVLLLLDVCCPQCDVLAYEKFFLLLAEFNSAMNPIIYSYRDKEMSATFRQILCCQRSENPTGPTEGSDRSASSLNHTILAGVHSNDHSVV

pIC50 | SMILES
6.00 to 7.00 | Cc1ccc(NC(=O)C2(c3ccccc3C(C)C)CC(C)(O)C2)c(OC(F)F)n1 (single isomer, unassigned) [Example 51-isomer B, N-(2-(difluoromethoxy)-6-methylpyridin-3-yl)-3-hydroxy-1-(2-isopropylphenyl)-3-methylcyclobutane-1-carboxamide]
7.00 to 8.00 | COc1cc(C)ccc1NC(=O)C1(c2ccccc2C(C)C)CNC(=O)C1 (single isomer, unassigned) [Example 102-isomer A, 3-(2-isopropylphenyl)-N-(2-methoxy-4-methylphenyl)-5-oxopyrrolidine-3-carboxamide]
6.00 to 7.00 | COc1ccc(NC(=O)C2(c3ccccc3C(C)C)CCC3(CC2)NC(=O)NC3=O)c(OC(F)F)n1 (mixture of isomers) [Example 86, N-(2-(difluoromethoxy)-6-methoxypyridin-3-yl)-8-(2-isopropylphenyl)-2,4-dioxo-1,3-diazaspiro[4.5]decane-8-carboxamide]
< 6.00 | Cc1ccc(NC(=O)C2(c3ccccc3C(C)C)CC(F)(F)C2)c(OC(F)F)n1 [Example 61, N-(2-(difluoromethoxy)-6-methylpyridin-3-yl)-3,3-difluoro-1-(2-isopropylphenyl)cyclobutane-1-carboxamide]
7.00 to 8.00 | COc1ccc(NC(=O)C2(c3ccccc3C(C)C)CC(CC#N)C2)c(OC(F)F)n1 (stereo not drawn) [Example 111, 3-(cyanomethyl)-N-(2-(difluoromethoxy)-6-methoxypyridin-3-yl)-1-(2-isopropylphenyl)cyclobutane-1-carboxamide]
< 6.00 | Cc1ccc(NC(=O)C2(c3ccccc3C(C)C)CC(N3CCC3)C2)c(OC(F)F)n1 (stereo not drawn) [Example 41, 3-(azetidin-1-yl)-N-(2-(difluoromethoxy)-6-methylpyridin-3-yl)-1-(2-isopropylphenyl)cyclobutane-1-carboxamide]
7.00 to 8.00 | CC(C)Oc1cc(Cl)ncc1NC(=O)C1(c2ccccc2C(C)C)COC1 [Example 33, N-(6-chloro-4-isopropoxypyridin-3-yl)-3-(2-isopropylphenyl)oxetane-3-carboxamide]
7.00 to 8.00 | COc1cc(Cl)ncc1NC(=O)C1(c2ccccc2C(C)C)COC1 [Example 19, N-(6-chloro-4-methoxypyridin-3-yl)-3-(2-isopropylphenyl)oxetane-3-carboxamide]
< 6.00 | COc1nc(NC(=O)C2(c3ccccc3C(C)C)CNC(=O)C2)c(OC(F)F)cc1Cl (stereo not drawn) [Example 12, N-(5-chloro-3-(difluoromethoxy)-6-methoxypyridin-2-yl)-3-(2-isopropylphenyl)-5-oxopyrrolidine-3-carboxamide]
> 8.00 | COc1ccc(NC(=O)C2(c3ccccc3C(C)C)COC2)c(OC(F)F)n1 [Example 15, N-(2-(difluoromethoxy)-6-methoxypyridin-3-yl)-3-(2-isopropylphenyl)oxetane-3-carboxamide]
6.00 to 7.00 | CC(C)c1ccccc1C1(C(=O)Nc2cnc(Cl)cc2OC2CC2)COC1 [Example 32, N-(6-chloro-4-cyclopropoxypyridin-3-yl)-3-(2-isopropylphenyl)oxetane-3-carboxamide]
7.00 to 8.00 | COc1cc(Cl)ccc1NC(=O)C1(c2ccccc2C(C)C)COC1 [Example 21, N-(4-chloro-2-methoxyphenyl)-3-(2-isopropylphenyl)oxetane-3-carboxamide]
> 8.00 | COc1ccc(NC(=O)[C@]2(c3ccccc3C(C)C)C[C@@H](Cc3nnn[nH]3)C2)c(OC(F)F)n1 [Example 120, trans-3-((1H-tetrazol-5-yl)methyl)-N-(2-(difluoromethoxy)-6-methoxypyridin-3-yl)-1-(2-isopropylphenyl)cyclobutane-1-carboxamide]
6.00 to 7.00 | Cc1ccc(NC(=O)C2(c3ccccc3C(C)C)CC(F)C2)c(OC(F)F)n1 (stereo not drawn) [Example 62, N-(2-(difluoromethoxy)-6-methylpyridin-3-yl)-3-fluoro-1-(2-isopropylphenyl)cyclobutane-1-carboxamide]
> 8.00 | CC(C)c1ccccc1C1(C(=O)Nc2ccc(Br)cc2OC(F)F)COC1 [Example 16, N-(4-bromo-2-(difluoromethoxy)phenyl)-3-(2-isopropylphenyl)oxetane-3-carboxamide]
7.00 to 8.00 | COc1ccc(NC(=O)C2(c3ccccc3C(C)C)CC(=O)N(C)C2)c(OC(F)F)n1 (single isomer, unassigned) [Example 1, N-(2-(difluoromethoxy)-6-methoxypyridin-3-yl)-3-(2-isopropylphenyl)-1-methyl-5-oxopyrrolidine-3-carboxamide]
6.00 to 7.00 | Cc1cc(OC(F)F)c(NC(=O)C2(c3ccccc3C(C)C)CC(=O)N(C)C2)cn1 (stereo not drawn) [Example 6, N-(4-(difluoromethoxy)-6-methylpyridin-3-yl)-3-(2-isopropylphenyl)-1-methyl-5-oxopyrrolidine-3-carboxamide]
6.00 to 7.00 | COc1nc(C)ccc1NC(=O)C1(c2ccccc2C(C)C)CNC(=O)C1 (stereo not drawn) [Example 106, 3-(2-isopropylphenyl)-N-(2-methoxy-6-methylpyridin-3-yl)-5-oxopyrrolidine-3-carboxamide]
7.00 to 8.00 | COc1ccc(NC(=O)[C@]2(c3ccccc3C(C)C)C[C@H](Cc3nnn[nH]3)C2)c(OC(F)F)n1 [Example 119, cis-3-((1H-tetrazol-5-yl)methyl)-N-(2-(difluoromethoxy)-6-methoxypyridin-3-yl)-1-(2-isopropylphenyl)cyclobutane-1-carboxamide]
6.00 to 7.00 | Cc1ccc(NC(=O)C2(c3ccccc3C(C)C)CC(S(C)(=O)=O)C2)c(OC(F)F)n1 (stereo not drawn) [Example 71, N-(2-(difluoromethoxy)-6-methylpyridin-3-yl)-1-(2-isopropylphenyl)-3-(methylsulfonyl)cyclobutane-1-carboxamide]
6.00 to 7.00 | Cc1ccc(NC(=O)C2(c3ccccc3C(C)C)CC(NC3CC3)C2)c(OC(F)F)n1 (single isomer, unassigned) [Example 40-isomer B, 3-(cyclopropylamino)-N-(2-(difluoromethoxy)-6-methylpyridin-3-yl)-1-(2-isopropylphenyl)cyclobutane-1-carboxamide]
7.00 to 8.00 | COc1ccc(NC(=O)C2(c3ccccc3C(C)C)CCC(O)CC2)c(OC(F)F)n1 (mixture of isomers) [Example 81, N-(2-(difluoromethoxy)-6-methoxypyridin-3-yl)-4-hydroxy-1-(2-isopropylphenyl)cyclohexane-1-carboxamide]
< 6.00 | COc1cc(Cl)cnc1NC(=O)C1(c2ccccc2C(C)C)COC1 [Example 20, N-(5-chloro-3-methoxypyridin-2-yl)-3-(2-isopropylphenyl)oxetane-3-carboxamide]
7.00 to 8.00 | COc1ccc(NC(=O)C2(c3ccccc3C(C)C)CCC(=O)CC2)c(OC(F)F)n1 [Example 80, N-(2-(difluoromethoxy)-6-methoxypyridin-3-yl)-1-(2-isopropylphenyl)-4-oxocyclohexane-1-carboxamide]
6.00 to 7.00 | CNC1CC(C(=O)Nc2ccc(C)nc2OC(F)F)(c2ccccc2C(C)C)C1 (mixture of isomers) [Example 38, N-(2-(difluoromethoxy)-6-methylpyridin-3-yl)-1-(2-isopropylphenyl)-3-(methylamino)cyclobutane-1-carboxamide]
< 6.00 | CC(C)c1ccccc1C1(C(=O)Nc2ccc(OC(F)F)nc2Cl)CNC(=O)C1 (stereo not drawn) [Example 107, N-(2-chloro-6-(difluoromethoxy)pyridin-3-yl)-3-(2-isopropylphenyl)-5-oxopyrrolidine-3-carboxamide]
> 8.00 | COc1ccc(NC(=O)C2(c3ccccc3C(C)C)CC(Cc3nnn[nH]3)C2)c(OC(F)F)n1 (stereo not drawn) [Example 113, 3-((1H-tetrazol-5-yl)methyl)-N-(2-(difluoromethoxy)-6-methoxypyridin-3-yl)-1-(2-isopropylphenyl)cyclobutane-1-carboxamide]
